Assay results as given in PubChem BioAssay AID248 (DTP/NCI, 2004).
“And” between values parts separate entries of the source, which are not always exact repeats. Equal values may be shown once. Inconclusive results and toxic doses are left out. No stated cut-off is given here; in the data, active means T/C of 150% or more; inactive means T/C below 125%.

Tested on: L1210 leukemia ip in BDF1 mice, survival T/C
Experiment: NCI In Vivo Anticancer Drug Screen. Data for tumor model L1210 Leukemia (intraperitoneal) in B6D2F1 (BDF1) mice
Conditions: endpoint: mean survival time, higher = longer survival
How it was run: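 Each compound was tested against a transplantable tumor grown in mice. The endpoint was survival, with treated animals benchmarked against vehicle controls as a simple ratio.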

[1] = dose: 100.0 mg/kg/injection, schedule: Q04DX002 (ip), vehicle: Klucel (hydroxypropylcellulose) (HPC)
[2] = dose: 200.0 mg/kg/injection, schedule: Q04DX002 (ip), vehicle: Klucel (hydroxypropylcellulose) (HPC)
[3] = dose: 400.0 mg/kg/injection, schedule: Q04DX002 (ip), vehicle: Klucel (hydroxypropylcellulose) (HPC)
[4] = dose: 100.0 mg/kg/injection, schedule: Q01DX009 (ip), vehicle: Klucel (hydroxypropylcellulose) (HPC)
[5] = dose: 100.0 mg/kg/injection, schedule: Q04DX003 (ip), vehicle: Klucel (hydroxypropylcellulose) (HPC)
[6] = dose: 200.0 mg/kg/injection, schedule: Q01DX009 (ip), vehicle: Klucel (hydroxypropylcellulose) (HPC)
[7] = dose: 200.0 mg/kg/injection, schedule: Q04DX003 (ip), vehicle: Klucel (hydroxypropylcellulose) (HPC)
[8] = dose: 400.0 mg/kg/injection, schedule: Q01DX009 (ip), vehicle: Klucel (hydroxypropylcellulose) (HPC)
[9] = dose: 400.0 mg/kg/injection, schedule: Q04DX003 (ip), vehicle: Klucel (hydroxypropylcellulose) (HPC)
[10] = dose: 100.0 mg/kg/injection, schedule: Q04DX003 (ip), vehicle: saline
[11] = dose: 200.0 mg/kg/injection, schedule: Q04DX003 (ip), vehicle: saline
[12] = dose: 100.0 mg/kg/injection, schedule: Q04DX003 (ip), vehicle: saline with Tween-80
[13] = dose: 200.0 mg/kg/injection, schedule: Q04DX003 (ip), vehicle: saline with Tween-80
[14] = dose: 400.0 mg/kg/injection, schedule: Q04DX003 (ip), vehicle: saline with Tween-80
[15] = dose: 100.0 mg/kg/injection, schedule: Q01DX001 (ip), vehicle: Klucel (hydroxypropylcellulose) (HPC)
[16] = dose: 200.0 mg/kg/injection, schedule: Q01DX001 (ip), vehicle: Klucel (hydroxypropylcellulose) (HPC)
[17] = dose: 400.0 mg/kg/injection, schedule: Q01DX001 (ip), vehicle: Klucel (hydroxypropylcellulose) (HPC)
[18] = dose: 400.0 mg/kg/injection, schedule: Q04DX003 (ip), vehicle: saline
[19] = dose: 50.0 mg/kg/injection, schedule: Q04DX003 (ip), vehicle: Klucel (hydroxypropylcellulose) (HPC)
[20] = dose: 100.0 mg/kg/injection, schedule: Q01DX001 (ip), vehicle: saline
[21] = dose: 200.0 mg/kg/injection, schedule: Q01DX001 (ip), vehicle: saline
[22] = dose: 400.0 mg/kg/injection, schedule: Q01DX001 (ip), vehicle: saline
[23] = dose: 100.0 mg/kg/injection, schedule: Q04DX002 (ip), vehicle: saline

Measured: T/C

O=C(CC1C(=O)Nc2ccccc21)CC1C(=O)Nc2ccccc21 (stereo unspecified)
inactive: [1] 102 % of control | [2] 97 % of control | [3] 102 % of control

O=C(NCCCCc1ccccc1)c1ccccc1
inactive: [4] 102 % of control | [5] 95 % of control | [6] 109 % of control | [7] 105 % of control | [8] 106 % of control | [9] 95 % of control

CC(=O)OCCn1c(C)nc2cc(Cl)c(Cl)cc21
inactive: dose: 100.0 mg/kg/injection, schedule: Q04DX003 (ip), vehicle: acetone 94 % of control | dose: 200.0 mg/kg/injection, schedule: Q04DX003 (ip), vehicle: acetone 98 % of control | dose: 400.0 mg/kg/injection, schedule: Q04DX003 (ip), vehicle: acetone 93 % of control

C/C(=C\Cl)C(=O)O
inactive: [10] 99 % of control | [11] 101 % of control

Brc1ccc([Si](c2ccccc2)(c2ccccc2)c2ccccc2)cc1
inactive: [12] 97 % of control | [13] 92 % of control | [14] 89 % of control

CCOC(=O)c1ccc(N)cc1C(=O)OCC
inactive: [15] 93 % of control | [16] 95 % of control | [17] 87 % of control

CCOC(=O)Cc1c(C(=O)OCC)nnn1-c1ccc([N+](=O)[O-])cc1
inactive: [1] 97 % of control | [2] 97 % of control | [3] 93 % of control

Cc1c(O)c2cccc(-c3ccccc3)c2oc1=O
inactive: [10] 87 % of control | [11] 91 % of control | [18] 109 % of control

OCC1CCCC1
inactive: dose: 50.0 mg/kg/injection, schedule: Q01DX001 (ip), vehicle: carboxymethylcellulose (CMC) 92 % of control | dose: 100.0 mg/kg/injection, schedule: Q01DX001 (ip), vehicle: carboxymethylcellulose (CMC) 94 % of control | dose: 200.0 mg/kg/injection, schedule: Q01DX001 (ip), vehicle: carboxymethylcellulose (CMC) 92 % of control | dose: 400.0 mg/kg/injection, schedule: Q01DX001 (ip), vehicle: carboxymethylcellulose (CMC) 94 % of control

Cc1ccc([N+](=O)[O-])cc1NC(=O)N(C)Cc1ccc(Cl)cc1
inactive: [15] 90 % of control | [4] 89 % of control and 90 % of control | [5] 102 % of control | [16] 98 % of control | [6] 94 % of control and 97 % of control | [7] 98 % of control | [17] 93 % of control | [8] 93 % of control and 90 % of control | [9] 100 % of control and 122 % of control

CCC(Cl)COP(=O)(OCC(Cl)CC)O/C(C)=C(/C)P(=O)(OCC(Cl)CC)OCC(Cl)CC (stereo unspecified)
inactive: dose: 100.0 mg/kg/injection, schedule: Q04DX002 (ip), vehicle: saline with Tween-80 104 % of control | dose: 200.0 mg/kg/injection, schedule: Q04DX002 (ip), vehicle: saline with Tween-80 96 % of control | dose: 400.0 mg/kg/injection, schedule: Q04DX002 (ip), vehicle: saline with Tween-80 100 % of control

Cc1cncc2c(=O)n(-c3ccccc3)n(C)c12
inactive: dose: 50.0 mg/kg/injection, schedule: Q01DX009 (ip), vehicle: Klucel (hydroxypropylcellulose) (HPC) 93 % of control | [4] 96 % of control

Oc1ccccc1OCc1ccccc1
inactive: [19] 92 % of control | [4] 101 % of control | [5] 94 % of control | [6] 97 % of control | [7] 92 % of control | [8] 102 % of control | [9] 100 % of control

COC(=O)C(Nc1ccc([N+](=O)[O-])cc1[N+](=O)[O-])C(C)OS(=O)(=O)c1ccc(C)cc1 (stereo unspecified)
inactive: [20] 95 % of control | [21] 93 % of control | [22] 92 % of control

CC(=O)COc1ccc([N+](=O)[O-])cc1
inactive: dose: 100.0 mg/kg/injection, schedule: Q01DX001 (ip), vehicle: saline with Tween-80 100 % of control | dose: 200.0 mg/kg/injection, schedule: Q01DX001 (ip), vehicle: saline with Tween-80 102 % of control | dose: 400.0 mg/kg/injection, schedule: Q01DX001 (ip), vehicle: saline with Tween-80 98 % of control

Cc1ccc(C)c(S(=O)(=O)OCC#CCOS(=O)(=O)c2cc(C)ccc2C)c1
inactive: dose: 50.0 mg/kg/injection, schedule: Q01DX009 (ip), vehicle: saline with Tween-80 92 % of control | dose: 100.0 mg/kg/injection, schedule: Q01DX009 (ip), vehicle: saline with Tween-80 92 % of control | [10] 97 % of control | dose: 200.0 mg/kg/injection, schedule: Q01DX009 (ip), vehicle: saline with Tween-80 87 % of control | [11] 97 % of control | [18] 91 % of control

CCO/C=C1\SC(=S)N(c2cccc(C)c2)C1=O
inactive: [4] 112 % of control | [5] 101 % of control | [6] 87 % of control | [7] 113 % of control | [9] 95 % of control

O/N=C/c1ccc(Cl)cc1Cl
inactive: [19] 97 % of control | [15] 94 % of control | [5] 95 % of control | [16] 97 % of control | [7] 97 % of control | [17] 102 % of control

Cc1cccc(OCCOC(=O)Nc2cccc(C(F)(F)F)c2)c1
inactive: [20] 104 % of control | dose: 100.0 mg/kg/injection, schedule: Q01DX009 (ip), vehicle: saline 100 % of control and 87 % of control | [23] 100 % of control and 101 % of control | [10] 101 % of control | [21] 106 % of control | dose: 200.0 mg/kg/injection, schedule: Q01DX009 (ip), vehicle: saline 92 % of control and 87 % of control | dose: 200.0 mg/kg/injection, schedule: Q04DX002 (ip), vehicle: saline 100 % of control and 105 % of control | [11] 106 % of control | [22] 109 % of control | dose: 400.0 mg/kg/injection, schedule: Q01DX009 (ip), vehicle: saline 94 % of control | dose: 400.0 mg/kg/injection, schedule: Q04DX002 (ip), vehicle: saline 92 % of control and 97 % of control | [18] 103 % of control

CN(C)c1ccc(/C=N/NC(=O)c2ccccc2NC(=O)C2CC2)cc1
inactive: [4] 93 % of control | [6] 104 % of control | [8] 90 % of control

Oc1ccc(O)c(Cl)c1
inactive: dose: 50.0 mg/kg/injection, schedule: Q01DX001 (ip), vehicle: saline 107 % of control | dose: 50.0 mg/kg/injection, schedule: Q04DX002 (ip), vehicle: saline 106 % of control | [15] 94 % of control | [20] 107 % of control | [23] 92 % of control | [16] 94 % of control

C[N+]1(CCC(c2ccccc2)c2ccccc2)CCCCC1
inactive: dose: 12.5 mg/kg/injection, schedule: Q01DX009 (ip), vehicle: saline 97 % of control | dose: 25.0 mg/kg/injection, schedule: Q01DX009 (ip), vehicle: saline 96 % of control | dose: 50.0 mg/kg/injection, schedule: Q01DX009 (ip), vehicle: saline 96 % of control

COC(=O)c1cc(Cl)ccc1OCC(=O)NCc1ccc(Cl)cc1
inactive: [12] 89 % of control | [13] 102 % of control | [14] 88 % of control
